# From US20260265525A1, “DEVELOPMENT OF HIGHLY FLUOROGENIC STYRENE PROBES FOR VISUALIZING RNA IN LIVE CELLS” (UNIVERSITY OF SOUTHERN CALIFORNIA, priority 2023, published 2026)
# Assays:
# [1] = Spectral and photophysical characterization of free dyes in T.E. buffer; format: physicochemical; settings: for Stokes shift / molar absorptivity: T.E. buffer; for emission wavelength (maximum) / fluorescence quantum yield of free dye / maximum absorbance wavelength: free dye in T.E. buffer
# Method: After the synthesis of the styrene dyes, their photophysical properties were evaluated. The spectral and photophysical properties (absorption, emission, molar absorptivity (ε), fluorescence quantum yield (ΦDF), and fluorescence enhancement) of probes 1a-1d were measured in DMSO and T.E. buffer (Tris-HCl, 1 mM EDTA, pH=7.5). FIG. 2D provides measurements of the fluorescent enhancement for several of the fluorescent probes.
# (§1) Coumarin 6 was used as a reference dye for MPI, 1a, and 1b and Rhodamine 6G was used as a reference for 1c and 1d. Absorption spectra were collected by Shimadzu UV-1800 spectrophotometer. Samples were loaded in plastic disposable cuvette. Emission spectra were obtained by Photon Technology International QuantaMaster model C-60 Fluorimeter in 1×1 cm^2 quartz cuvettes. Fluorescence quantum yields were then calculated according to the method by Lawson-wood, Upstone, and Evans. (58) The torula yeast type IV RNA (Sigma) solution was prepared as a 200 μg/mL solution in T.E. buffer (Tris-HCl, EDTA, pH 7.6, Bioworld) without sonicating to avoid shearing of nucleic acids. All measurements were taken using samples with a final dye concentration of 10 μM.
# torula yeast type IV RNA = assay: Quantum yield and fluorescence enhancement of dyes incubated with RNA; format: binding; settings: for quantum yield in RNA solution: 10 μM dye, 200 μg/mL RNA in T.E. buffer; for fluorescence enhancement upon binding RNA: ratio of quantum yield of dye in RNA solution over free dye
# Method: To determine the fluorescence change of 1a-1d in the presence of RNA, the dyes (10 μM) were incubated with torula yeast type IV RNA in T.E. buffer and measured the spectral and photophysical parameters as described above. Fold-enhancement values were calculated by taking the ratio of the quantum yield of dyes in RNA solution over free dyes.
# as §1
# DNA from calf thymus = assay: Fluorescence titration of 1c with nucleic acids or BSA; format: binding; settings: fluorogenic response with DNA vs RNA
# Method: Solutions of torula yeast RNA type IV (RNA mixture) and DNA from calf thymus (Sigma) were prepared and stored at 4° C. overnight. Bovine serum albumin (BSA, Thermo Fisher) and Baker's yeast RNA (rRNA, Sigma) solutions were prepared at 2 h before testing. 100 μL of 1 μM 1c were diluted by corresponding substrates solution reaching concentrations ranging from 0 to 1000 μg/mL of nucleic acids or BSA. The resulting mixtures were placed in a 96-well opaque plate. The plate with the mixture was gently shaken for 5 min before being evaluated by a microplate reader.
# rRNA = assay: Native-PAGE gel staining; set-up: species or system Baker's yeast
# Method: 1 L of 10×TBE running buffer was prepared by mixing 108 g of Tris Base, 55 g of boric acid, and 40 mL of 0.5 M EDTA (Apex). The combined solution was diluted to 1 L by filtered H2O. 14 mL of 8% Native-PAGE gel was prepared by mixing 0.7 mL of 10×TBE buffer, 0.14 mL of 10% APS buffer (Bio-Rad), and 3.73 mL of 30% acrylamide solution. The mixture was diluted to 14 mL with filtered water. 28 μL of TEMED (Sigma) was added to the mixture. The gel mixture was transferred into the casting frame placed in a precooled gel chamber. An 18-well cast was put on the top and left for polymerization for 15 min on ice. The gel chamber was filled with cold 0.5×TBE running buffer. The gel was pre-run at 150 V for 40 min. The RNA marker mixture was loaded (5 μL micro-RNA marker+0.4 μL low range marker (Bio-Rad) for one well). 5 μL of rRNA sample was loaded to reach rRNA amount as 1 and 10 μg. The RNA marker and rRNA sample loading had four repeats on the same gel. The gel was run at 150 V for 30 min. The cut gels were stained and shaken in 25 mL of 1×SYBR Gold (Thermo Fisher), 2 μM 1c, 20 μM 1c, and 40 μM 1c for 15 min. The gels were de-stained with 0.5×TBE buffer and shaken for 10 min. The buffer was removed, and the gels were imaged using an Amersham Typhoon Biomolecular […].
# PFA-fixed HeLa cells = assay: Fixed-cell imaging; format: cell-based; settings: HeLa fixed with 4% PFA
# Method: HeLa cells were cultured on 6-well plates containing glass coverslips and incubated at 37° C. overnight or until fully adherent. After removing the medium and washing with DPBS, the cells were fixed with 4% paraformaldehyde for 10 min at ambient temperature. After fixation, the cells were rinsed with PBS and incubated with dye solutions in PBS for 30 min at ambient temperature. After incubation, the dye solutions were removed and cells were gently washed with PBS three times. The coverslips were mounted onto glass slides, sealed, and analyzed using confocal microscopy.
# [2] = system: RNA mixture (torula yeast RNA type IV); assay: Comparison of fluorogenic response with SYTO RNASelect; format: binding; settings: same RNA species
# Method: 100 μL of 1 μM 1c and SYTO RNASelect were diluted by 100 μL solutions of RNA mixture to reach final concentrations ranging from 0 to 1000 μg/mL. The resulting mixtures were placed in a 96-well opaque plate. The plate with the mixture was gently shaken for 5 min before being evaluated by a microplate reader (SpectraMax iD5).
# RNA/spermine condensates = assay: Staining and FLIM imaging of RNA-spermine condensates; set-up: species or system torula yeast; settings: 10 μM
# Method: A 1 wt % stock solution of torula yeast RNA type IV was prepared in nuclease-free water and stored in multiple aliquots at −20° C. Final concentrations of RNA ranged from 0.02 to 0.4 wt %. A 1 wt % stock solution of spermine was prepared in deionized water and stored at 4° C. The spermine (Sigma) concentration was fixed at 0.1 wt %. Dye 1c was prepared as 10 mM stock solutions in DMSO. Condensates were prepared in a 5 mM HEPES (pH 7.4, VWR), 1 mM MgCl2 buffer. Stock solutions were added in the following order for the preparation of each sample: deionized water, HEPES, MgCl2, RNA, and spermine. Samples were mixed via gentle pipetting in between the addition of each component. RNA condensates were incubated with 10 μM 1c for 1 min at room temperature. To image the condensates, 20 μL of the incubated sample was added onto a glass coverslip and mounted onto a glass slide. Images were acquired using fluorescence confocal microscopy and FLIM.
# live HeLa cells = assay: Live-cell and time-resolved confocal imaging; format: cell-based; settings: for cellular localization of fluorescence signals: live HeLa, 20 μM, 30 min; for time after addition at which nucleoli could be clearly discerned: live cells, dye in medium
# Method: HeLa cells were cultured at a density of 7000 cells/well on chambered glass sides and incubated at 37° C. overnight or until fully adherent. After removing the medium and washing with DPBS (Thermo Fisher), the cells were incubated with dyes in PBS (Thermo Fisher) for 30 min at 37° C. with 5% CO2 on the microscope stage and analyzed directly. Fluorescence images were acquired using a confocal microscope (Leica SP8, Leica Microsystems) and analyzed using ImageJ. MPI (20 μM) was excited at 440 nm, SYTO RNASelect (0.1-1 μM, Thermo Fisher) was excited at 490 nm, 1c (10 nM-20 μM) was excited at 550 nm, and 1d (20 μM) was excited at 500 nm.
# HeLa cells were cultured on eight-well chambered glass slides (iBidi μ-slides) and incubated overnight at 37° C. with 5% CO2 until totally adherent. Staining solutions for each dye were prepared in serum-free DMEM and kept warm at 37° C. The cells were monitored from 0 to 30 min, where t=0 is the time right before the addition of the dye. Images were acquired at t=0, 0.5, 1, 2, 5, 10, 15, 20, 25, and 30 min for each dye. Fluorescence images were analyzed and quantified with ImageJ.
# fixed HeLa cells = assay: Ribonuclease (RNase) digest experiment; format: cell-based; settings: fixed cells treated with RNase
# Method: HeLa cells were cultured in six-well plates with glass coverslips and incubated at 37° C. overnight to totally adherent. The cells were fixed according to the protocol described above with minor modifications. A solution of 4% paraformaldehyde+0.1% Triton-X was prepared in PBS and used to fix and permeabilize HeLa cells. The cells were incubated with this solution for 20 min at room temperature. After rinsing the cells with PBS, the cells were stained with 1 μM 1c, 1d, or SYTO in PBS for 30 min at room temperature. After removing the staining solution, 0.5 mL of RNase ([…]) and PBS (negative control) was added into each respective well and incubated for 6 h. After incubation, the medium was removed, and the cells were thoroughly washed with PBS three times. The glass coverslips were mounted onto glass slides, sealed, and analyzed using confocal microscopy.
# [3] = previously reported; cited from earlier work
compound,measurement,setting,value
Cn1c(/C=C/c2cc[n+](C)cc2)cc2ccccc21.[I-] [Dye 1a],Stokes shift,[1],162 nm
same,molar absorptivity,[1],20600 M⁻¹ cm⁻¹
same,emission wavelength (maximum),[1],584 nm
same,fluorescence quantum yield of free dye,[1],0.12%
same,maximum absorbance wavelength,[1],422 nm
same,quantum yield in RNA solution,torula yeast type IV RNA,9.9%
same,fluorescence enhancement upon binding RNA,torula yeast type IV RNA,104 fold
C[n+]1ccc(/C=C/c2cc3ccccc3[nH]2)cc1.[I-] [Dye 1b],Stokes shift,[1],142 nm
same,molar absorptivity,[1],24400 M⁻¹ cm⁻¹
same,emission wavelength (maximum),[1],568 nm
same,fluorescence quantum yield of free dye,[1],0.12%
same,maximum absorbance wavelength,[1],410 nm
same,quantum yield in RNA solution,torula yeast type IV RNA,3.9%
same,fluorescence enhancement upon binding RNA,torula yeast type IV RNA,33 fold
C[n+]1ccc(/C=C/c2ccc3ccccn23)cc1.[I-] [Dye 1c],selectivity for RNA over DNA in vitro,DNA from calf thymus,moderate selectivity for RNA over DNA
same,Stokes shift,[1],86 nm
same,molar absorptivity,[1],27500 M⁻¹ cm⁻¹
same,emission wavelength (maximum),[1],596 nm
same,fluorescence quantum yield of free dye,[1],0.10%
same,maximum absorbance wavelength,[1],510 nm
same,sensitivity of gel staining versus SYBR Gold,rRNA,"lower than the commercial standard, SYBR Gold"
same,staining of RNA in PAGE-gels,rRNA,can stain RNA in PAGE-gels
same,localization of fluorescence signals in fixed cells,PFA-fixed HeLa cells,predominantly coming from the nucleoli and cytoplasm
same,fluorogenic response compared with SYTO RNASelect,[2],significantly higher fluorogenic responses than SYTO™ RNASelect
same,partitioning into RNA coacervates,RNA/spermine condensates,readily partitions into RNA coacervates
same,lowest concentration used to resolve nucleoli,live HeLa cells,10 nM
same,concentration sufficient for visualizing nucleoli (dose-response study),live HeLa cells; live HeLa cells,nanomolar concentrations
same,cellular localization of fluorescence signals,live HeLa cells,primarily within the nucleoli and cytoplasm
same,time after addition at which nucleoli could be clearly discerned,live HeLa cells,30 s
same,quantum yield in RNA solution,torula yeast type IV RNA,49%
same,fluorescence enhancement upon binding RNA,torula yeast type IV RNA,490 fold
same,dependence of nucleolar staining on RNA,fixed HeLa cells,RNA-dependent
C[n+]1ccc(/C=C/c2ccn3ccccc23)cc1.[I-] [Dye 1d],Stokes shift,[1],86 nm
same,molar absorptivity,[1],34600 M⁻¹ cm⁻¹
same,emission wavelength (maximum),[1],572 nm
same,fluorescence quantum yield of free dye,[1],0.38%
same,maximum absorbance wavelength,[1],486 nm
same,localization of fluorescence signals in fixed cells,PFA-fixed HeLa cells,predominantly coming from the nucleoli and cytoplasm
same,cellular localization of fluorescence signals,live HeLa cells,primarily within the nucleoli and cytoplasm
same,time after addition at which nucleoli could be clearly discerned,live HeLa cells,30 s
same,quantum yield in RNA solution,torula yeast type IV RNA,50%
same,fluorescence enhancement upon binding RNA,torula yeast type IV RNA,132 fold
C[n+]1ccc(/C=C/c2c[nH]c3ccccc23)cc1.[I-] [IN],absorption wavelength (reported),[3],~ 440 nm
same,emission wavelength (reported),[3],~ 540 nm
methyl pyridinium indole [MPI],absorption wavelength (reported),[3],~ 440 nm
same,emission wavelength (reported),[3],~ 540 nm
same,fluorescence quantum yield (reported),[3],32%
